pIC50: −log10 of the molar value.
What was measured:
Integrin alpha-4/beta-1 = Integrin alpha-4/beta-1 (Homo sapiens, UniProt P05556+P13612); assay: In vitro inhibition of binding of integrin alpha4-beta1 to immobilized VCAM-1 expressed on endothelial cell surface.; assay type: functional, cell-based
[1] = In vitro inhibition of binding of integrin alpha4-beta7 to immobilized MAdCAM-1 expressed on epithelial cell surface.; assay type: functional, cell-based
[2] = Inhibition of integrin alpha4-beta7 binding to immobilized MAdCAM-1 (mucosal addressin cell adhesion molecule-1) of epithelial cells at 5 uM; assay type: functional

Chain of Integrin alpha-4/beta-1 (P05556 whole entry): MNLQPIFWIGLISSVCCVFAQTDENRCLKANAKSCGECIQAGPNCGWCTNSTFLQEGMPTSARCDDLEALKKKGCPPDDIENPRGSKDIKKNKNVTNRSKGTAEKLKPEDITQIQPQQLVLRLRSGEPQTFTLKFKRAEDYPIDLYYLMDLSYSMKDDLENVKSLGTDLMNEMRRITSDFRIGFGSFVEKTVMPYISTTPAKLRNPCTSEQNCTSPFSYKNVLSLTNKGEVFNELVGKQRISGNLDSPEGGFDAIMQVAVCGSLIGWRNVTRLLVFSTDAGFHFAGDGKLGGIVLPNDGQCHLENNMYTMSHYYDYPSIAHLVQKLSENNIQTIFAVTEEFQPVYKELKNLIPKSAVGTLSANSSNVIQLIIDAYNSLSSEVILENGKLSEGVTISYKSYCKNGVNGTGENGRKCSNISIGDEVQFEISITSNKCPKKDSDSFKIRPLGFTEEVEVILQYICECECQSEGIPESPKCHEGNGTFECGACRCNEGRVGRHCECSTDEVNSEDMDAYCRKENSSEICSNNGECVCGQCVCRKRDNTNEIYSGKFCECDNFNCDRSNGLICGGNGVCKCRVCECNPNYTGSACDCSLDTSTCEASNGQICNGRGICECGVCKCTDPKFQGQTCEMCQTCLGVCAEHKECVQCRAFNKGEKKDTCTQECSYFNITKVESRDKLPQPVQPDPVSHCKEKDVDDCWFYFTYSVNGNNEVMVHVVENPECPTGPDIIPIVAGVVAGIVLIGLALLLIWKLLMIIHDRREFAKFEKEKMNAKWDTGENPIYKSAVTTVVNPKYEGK
Chain of Integrin alpha-4/beta-1 (P13612 whole entry): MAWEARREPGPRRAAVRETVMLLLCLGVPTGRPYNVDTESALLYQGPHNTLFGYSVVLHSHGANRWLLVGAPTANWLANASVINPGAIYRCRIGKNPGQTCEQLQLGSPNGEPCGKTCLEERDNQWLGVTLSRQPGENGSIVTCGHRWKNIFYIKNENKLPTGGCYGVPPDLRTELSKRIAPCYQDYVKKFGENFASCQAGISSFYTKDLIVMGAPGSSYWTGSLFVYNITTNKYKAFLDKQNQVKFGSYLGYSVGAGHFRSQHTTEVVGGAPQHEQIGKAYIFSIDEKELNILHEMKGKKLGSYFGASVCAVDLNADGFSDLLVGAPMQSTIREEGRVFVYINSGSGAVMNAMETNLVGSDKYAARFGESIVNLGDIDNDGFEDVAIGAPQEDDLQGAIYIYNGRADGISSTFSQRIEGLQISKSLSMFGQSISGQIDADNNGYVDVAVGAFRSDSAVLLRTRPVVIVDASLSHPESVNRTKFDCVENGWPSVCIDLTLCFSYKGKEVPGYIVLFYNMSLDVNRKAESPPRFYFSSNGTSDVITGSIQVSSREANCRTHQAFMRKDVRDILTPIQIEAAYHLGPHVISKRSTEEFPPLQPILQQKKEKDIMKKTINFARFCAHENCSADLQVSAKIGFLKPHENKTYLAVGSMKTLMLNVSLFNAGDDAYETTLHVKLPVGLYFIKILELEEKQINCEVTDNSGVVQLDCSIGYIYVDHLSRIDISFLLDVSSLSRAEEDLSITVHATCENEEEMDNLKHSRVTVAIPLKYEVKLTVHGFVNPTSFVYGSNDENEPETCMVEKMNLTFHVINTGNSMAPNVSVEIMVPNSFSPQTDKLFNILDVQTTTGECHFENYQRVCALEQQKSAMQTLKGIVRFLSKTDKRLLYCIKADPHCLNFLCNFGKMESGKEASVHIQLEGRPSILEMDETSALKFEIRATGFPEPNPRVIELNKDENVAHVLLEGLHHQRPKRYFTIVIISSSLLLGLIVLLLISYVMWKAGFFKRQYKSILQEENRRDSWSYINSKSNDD

Row | SMILES | pIC50 (Integrin alpha-4/beta-1) | pIC50 [1] | inhibition at 5 µM [2]
1 | O=C(Nc1ccc(C[C@H](NC(=O)C2C3CCC(CC3)N2S(=O)(=O)c2cc(Cl)c(Cl)s2)C(=O)O)cc1)c1cc(Cl)nc(Cl)c1 (some centres undefined) | 7.16 | 7.85 | –
2 | O=C(Nc1ccc(C[C@H](NC(=O)C2C3CCC(CC3)N2S(=O)(=O)c2ccc(Cl)s2)C(=O)O)cc1)c1cc(Cl)nc(Cl)c1 (some centres undefined) | 7.96 | 7.19 | –
3 | O=C(Nc1ccc(C[C@H](NC(=O)[C@@H]2C3CCC(CC3)N2S(=O)(=O)c2cccs2)C(=O)O)cc1)c1c(Cl)cccc1Cl | 7.52 | 7.21 | –
4 | CC(=O)N1CSC[C@@H]1C(=O)N[C@@H](Cc1ccc(OCc2c(Cl)cccc2Cl)cc1)C(=O)O | 6.39 | 7.05 | –
5 | Cc1ccc(S(=O)(=O)N2C3CCC(CC3)C2C(=O)N[C@@H](Cc2ccc(NC(=O)c3c(Cl)cc(Cl)cc3Cl)cc2)C(=O)O)cc1 (some centres undefined) | – | 6.37 | –
6 | O=C(Nc1ccc(C[C@H](NC(=O)[C@@H]2C3CCC(CC3)N2S(=O)(=O)c2cccs2)C(=O)O)cc1)c1cc(Cl)nc(Cl)c1 | 8.30 | 7.49 | –
7 | Cc1ccc(S(=O)(=O)N2C3CCC(CC3)C2C(=O)N[C@@H](Cc2ccc(NC(=O)Nc3c(Cl)cccc3Cl)cc2)C(=O)O)cc1 (some centres undefined) | 5.80 | – | –
8 | O=C(Nc1ccc(C[C@H](NC(=O)[C@@H]2C3CCC(CC3)N2S(=O)(=O)c2cccc3ccncc23)C(=O)O)cc1)c1cc(Cl)nc(Cl)c1 | 7.92 | 7.66 | –
9 | O=C(Nc1ccc(C[C@H](NC(=O)C2C3CCC(CC3)N2S(=O)(=O)c2c(Cl)cccc2Cl)C(=O)O)cc1)c1cc(Cl)nc(Cl)c1 (some centres undefined) | 6.98 | 7.96 | –
10 | O=C(Nc1ccc(C[C@H](NC(=O)[C@@H]2C3CCC(CC3)N2S(=O)(=O)c2cccc3cccnc23)C(=O)O)cc1)c1cc(Cl)nc(Cl)c1 | 6.82 | 6.82 | –
11 | O=C(Nc1ccc(C[C@H](NC(=O)[C@@H]2C3CCC(CC3)N2S(=O)(=O)c2ccccc2)C(=O)O)cc1)c1cc(Cl)nc(Cl)c1 | 7.92 | 7.89 | –
12 | Cc1ccc(S(=O)(=O)N2C3CCC(CC3)C2C(=O)N[C@@H](Cc2ccc(NC(=O)c3ccccc3)cc2)C(=O)O)cc1 (some centres undefined) | – | – | 30%
13 | Cc1ccc(S(=O)(=O)N2C3CCC(CC3)C2C(=O)N[C@@H](Cc2ccc(NC(=O)Cc3c(Cl)cccc3Cl)cc2)C(=O)O)cc1 (some centres undefined) | – | – | 28%
14 | O=C(Nc1ccc(C[C@H](NC(=O)C2C3CCC(CC3)N2S(=O)(=O)c2ccccc2C(F)(F)F)C(=O)O)cc1)c1cc(Cl)nc(Cl)c1 (some centres undefined) | 7.09 | 6.99 | –

Second part, led by results:

Row | pIC50 (Integrin alpha-4/beta-1) | pIC50 [1] | SMILES | inhibition at 5 µM [2]
15 | 7.72 | 7.03 | O=C(Nc1ccc(C[C@H](NC(=O)[C@@H]2C3CCC(CC3)N2S(=O)(=O)c2ccccc2)C(=O)O)cc1)c1c(Cl)cccc1Cl | –
16 | 7.44 | 6.76 | O=C(Nc1ccc(C[C@H](NC(=O)[C@@H]2C3CCC(CC3)N2S(=O)(=O)c2ccccc2)C(=O)O)cc1)c1ccncc1 | –
17 | 5.80 | – | O=C(Nc1ccc(C[C@H](NC(=O)[C@H]2C3CCC(CC3)N2S(=O)(=O)c2ccccc2)C(=O)O)cc1)c1c(Cl)cccc1Cl | –
18 | 7.52 | 6.92 | COc1cccc(OC)c1-c1ccc(C[C@H](NC(=O)[C@@H]2C[C@@H](c3ccccc3)CN2S(=O)(=O)c2ccccc2)C(=O)O)cc1 | –
19 | – | 6.49 | Cc1ccc(S(=O)(=O)N2C3CCC(CC3)C2C(=O)N[C@@H](Cc2ccc(NC(=O)c3c(Cl)cccc3Cl)cc2)C(=O)O)cc1 (some centres undefined) | –
20 | – | 6.51 | O=C(O)[C@H](Cc1ccc(N2C(=O)c3ccccc3C2=O)cc1)NC(=O)[C@@H]1C2CCC(CC2)N1S(=O)(=O)c1ccccc1 | –
21 | – | 7.05 | COc1cccc(OC)c1-c1ccc(C[C@H](NC(=O)[C@@H]2C3CCC(CC3)N2S(=O)(=O)c2ccccc2)C(=O)O)cc1 | –
